{"source": "patent US20180298344A1", "about": "“Realistic Humanized Model of Disease Matrix Environment for Evaluation of Therapeutic Reversal or Cell Fate” (Yale University, priority 2017, published 2018)", "key": {"[1]": {"tested_on": "idiopathic pulmonary fibrosis patients", "settings": "IPF patients; cited from earlier work"}, "[2]": {"tested_on": "human microvascular pericytes (PC)", "experiment": "PC on high stiffness polyacrylamide hydrogels treated with CCG-1423; α-SMA by flow cytometry, F-Actin staining", "format": "cell-based", "settings": "for detectable quantities of α-SMA: high-stiffness hydrogels, versus naive PC; for detectable quantities of α-SMA / decrease in expression of α-SMA: flow cytometry; for decrease in expression of α-SMA: 1.0 nM", "protocol": "(§1) Human microvascular PC were isolated from a readily available and nearly inexhaustible source, human placental tissue, by microvascular segment explant outgrowth (Sava et al., Microcirculation, 2015, 22:54-67; Ayres-Sander et al., PLoS One, 2013, 8:e60025; Lauridsen et al., FASEB, 2014, 28:1166-1180; Maier et al., Microcirculation, 2010, 17:367-380). Human placental tissue was segmented, digested with collagenase, and the resulting cells were cultured in M199 (Gibco, Grand Island, NY, USA) medium supplemented with 20% FBS (Hyclone Laboratories, Logan, Utah, USA), and 1% penicillin-streptomycin (Gibco). Isolated pericytes were screened by flow cytometry against NG2 (H-300, Santa Cruz Biotechnology), CD90 (K-15, Santa Cruz), CD146 (P1H12, Biolegend, San Diego, Calif., USA), PDGFR-β (18A2, Santa Cruz), α-SMA (1A4, Santa Cruz), SMMHC (N-16, Santa Cruz), CD31 (C20, Santa Cruz), CD34 (581, Sigma) and CD45 (MEM-28, Sigma). As negative control, PC were incubated with isotype matched IgG. Samples were run on a Stratedigm S1000EXi Flow Cytometer (Stratedigm, San Jose, Calif. USA) and analyzed with FlowJo software (Tree Star, Ashland, Oreg., USA).\n(§2) Polyacrylamide hydrogels were prepared as previously described (Tse and Engler, Current protocols in cell biology, editorial board, Juan S. Bonifacino et al, 2010, Chapter 10, Unit 10-16). Briefly, amino-silanated coverslips were prepared by treatment with 0.1M NaOH, followed by 3-aminopropyltriethoxysilane (Sigma), and crosslinked with glutaraldehyde. Chloro-silanated coverslips were treated with dichlorodimethylsilane (Sigma). Polyacrylamide solutions of varying stiffness were prepared by altering the concentrations of acrylamide (Bio-Rad, Hercules, Calif., USA) and bis-acrylamide (Bio-Rad). Ammonium persulfate (Sigma) and tetramethylethylenediamine (Bio-Rad) were used as cross-linkers. The solution was placed between the chloro-silanated and amino-silanated coverslips and cross-linked under ambient lighting for 30 minutes, after which the amino-silanated slide, containing the hydrogel, was hydrated in PBS. The ECM components were chemically conjugated to the polyacrylamide hydrogel using the naturally occurring amine residues on the proteins. Sulfa-SANPAH (Thermo Fisher, Grand Island, N.Y., USA) was added in 50 mM 4-(2-hydroxyethyl)-1-piperazineethanesulfonic acid buffer (Sigma) and the hydrogels were placed under UV light (365 nm, 10 mW/cm^2) for 15 minutes, and incubated overnight with either 0.5 mg/mL solubilized healthy or IPF human lung ECM, or isolated ECM proteins (0.1 mg/mL human plasma fibronectin (Millipore, Billerica, Mass., USA) and 0.1 mg/mL collagen I (Sigma). Validation of protein conjugation was performed by tagging ECM with NHS-Fluorescein (5/6-carboxyfluorescein succinimidyl ester), dialyzing overnight, and rinsed extensively (Syed et al., J Vis, Exp, 2015, 97).\n(§3) For short term (7 day) differentiation studies, PC (passage 3-7) were seeded on healthy or IPF lung tissue slices, polyacrylamide hydrogels, or 25 mm glass coverslips (VWR) at 100×10^3 cells per sample and activated with control media (non-activated), or 1 ng/mL TGF-β1 (PeproTech, Rocky Hill, N.J., USA) for 7 days (18, 19). For bleomycin activation, the cells were activated with 1 μg/mL bleomycin sulfate (Cayman Chemical, Ann Arbor, Mich.) for 1 day and the media was replaced with non-activated media for the remaining 6 days (Sava et al., Microcirculation, 2015, 22:54-67; Sterling et al., J Bio Chem, 1983, 258:14438-14444). […]"}, "[3]": {"tested_on": "fibrosis in mouse models", "settings": "in vivo mouse models; cited from earlier work"}, "[4]": {"tested_on": "human microvascular pericytes (PC)", "experiment": "Short term (7 day) myofibroblast differentiation of PC on low, medium, high stiffness hydrogels with TGF-β1 or bleomycin activation", "format": "cell-based", "settings": "7 days", "protocol": "as §1, §2\nas §3, with “258:14438-14444). TGF-β1 and bleomycin concentrations were based on reports consistent with activation of fibroblasts (Sava et al., Microcirculation, 2015, 22:54-67; Maroni and Davis, Bio Reprod, 2012, 87:127). Treatment with CCG-1423 (Sigma) was performed at day 0 for the full 7 days, and labeled as early treatment, or at day 7 and performed for 7 days, and labeled as late treatment.” for “258:14438-14444).”"}, "[5]": {"settings": "low, medium, high stiffness hydrogels with fibronectin and collagen I, TGF-β1 1 ng/mL 7 days or bleomycin 1 μg/mL 1 day, flow cytometry"}}, "data": [{"compound": "Cc1ccc(=O)n(-c2ccccc2)c1", "note": "[pirfenidone]", "values": [{"measurement": "decline in forced vital capacity", "setting": "[1]", "value": "reducing the decline in forced vital capacity"}]}, {"compound": "CC(ONC(=O)c1cc(C(F)(F)F)cc(C(F)(F)F)c1)C(=O)Nc1ccc(Cl)cc1", "note": "(stereo not shown) [CCG-1423]", "values": [{"measurement": "detectable quantities of α-SMA", "setting": "[2]; CCG-1423 treatment at day 0 of PC culture, P<0.001", "value": "significantly reduced"}, {"measurement": "detectable quantities of α-SMA", "setting": "[2]; CCG-1423 treatment at day 7 of PC culture, P=0.039", "value": "significantly reduced"}, {"measurement": "cell F-Actin architecture", "setting": "[2]; F-Actin staining, high stiffness hydrogel", "value": "did not alter"}, {"measurement": "decrease in expression of α-SMA", "setting": "[2]; early time-point (day 0) treatment for 7 days, high stiffness hydrogel", "value": "38.2±4.2", "unit": "%"}, {"measurement": "decrease in expression of α-SMA", "setting": "[2]; late time point (day 7) treatment for additional 7 days, high stiffness hydrogel", "value": "20.4±8.0", "unit": "%"}, {"measurement": "prevention of fibrosis", "setting": "[3]", "value": "effective in preventing fibrosis"}]}, {"compound": "bleomycin sulfate", "values": [{"measurement": "vimentin expression compared to non-activated PC on substrates of the same stiffness", "setting": "[4]; [5]", "value": "significantly increased"}, {"measurement": "α-SMA expression compared to non-activated PC on substrates of the same stiffness", "setting": "[4]; [5]", "value": "significantly increased"}, {"measurement": "cell area and elongation (aspect ratio)", "setting": "[4]; medium and high stiffness substrates", "value": "largest area and elongation"}]}]}
